Assays:
Format in all cases: cell-based, human
[1] = system: GPM PDCs; assay: Viability of GPM patient-derived cells (PDCs) after compound treatment, CellTiterGlo; conditions: ten GPM PDCs, 72 h treatment, serial dilutions
Description: (§1) FIGS. 9A-K show MTC PDCs are distinctly sensitive to mitochondrial inhibition. […] Data are mean±s.d. of n≥3 replicates for each PDC from one representative experiment. […] Middle: correlation analysis of MTC (blue) and GPM (red) activity in PDCs (n=25 MTC PDCs and n=21 GPM PDCs; Spearman's correlation, p=−0.51, P=0.0003). Bottom: enrichment of fCNV gain and loss of mitochondrial and glycolytic-related genes in MTC PDCs (n=25) and GPM PDCs (n=21). The number of genes amplified/deleted in each tumor is color coded (amplifications, red to white; deletions, blue to white). FIGS. 9F and G show viability curves of nine MTC PDCs and nine GPM PDCs each derived from an independent patient treated with either FX-11 (F) or DEAB (G). Data are mean±s.d. from n≥4 replicates for each PDC from one representative experiment. […] Representative MRs with differential activity (n=304 tumors, n=2,799 cells from dataset 1, n=9,652 cells from dataset 2 and n=4,916 cells from dataset 3; two-sided MWW test, FDR<0.01) in TCGA and at least two out of three single-cell datasets are shown (two-sided MWW-GST test, log it(NES)>0.58, FDR<0.01). Nodes represent MRs and target genes, while lines represent interactions. […] Data are mean±s.d. from one representative experiment including n=3 independent infections for each PDC; **P=0.0010 and 0.0013 for PDC-002 shRNA1 and shRNA2 versus vector, respectively; **P=0.0030 and 0.0023 for PDC-026 shRNA1 and shRNA2 versus vector, respectively; *P=0.0285 for PDC-078 shRNA1 versus vector; *P=0.0142 for PDC-021 shRNA1 versus vector. […] Data are mean±s.d. of one representative experiment assessed by n=30 replicates for each PDC; **P=0.0022. […] Data are mean±s.d. of n=3 independent experiments for each PDC, each performed in triplicate. Bars on the right-hand side of the graph indicate mean±s.e.m. of values observed in the two sets of PDCs; n=7 MTC PDCs and n=7 GPM PDCs, each derived from an independent patient; ***P=0.00006. Experiments in A-D, F, G, I and J were repeated two times with similar results. In all experiments, significance was evaluated by two-tailed t-test, unequal variance.
(§2) Therefore, we tested the sensitivity of 13 MTC and ten GPM PDCs to compounds that interfere with OXPHOS and mitochondrial metabolism. […] Conversely, GPM PDCs were resistant to all four compounds (FIG. 9A-D). […] Furthermore, the complementary fCN gains and losses of MTC and GPM gene sets robustly correlated with mitochondrial inhibitor sensitivity score (FIG. 9E). Treatment of GBM PDCs with inhibitors of glycolysis (DEAB and FX-11)^51 had no effect regardless of the metabolic class of PDC (FIGS. 9F,G).
(§3) Compound treatment of PDCs. […] Viability was determined using CellTiterGlo assay reagent (Promega, no. G7570) and the GloMax-Multi+Microplate Multimode Reader (Promega).

[2] = system: MTC PDCs; assay: Viability of MTC patient-derived cells (PDCs) after compound treatment, CellTiterGlo; conditions: 13 MTC PDCs, 72 h treatment, serial dilutions
Description: as §1, §2, §3

[3] = system: GBM PDCs; assay: Viability of GBM PDCs (MTC and GPM) treated with inhibitors of glycolysis; conditions: nine MTC and nine GPM PDCs, 72 h treatment
Description: FIGS. 9A-K show MTC PDCs are distinctly sensitive to mitochondrial inhibition. […] Data are mean±s.d. of n≥3 replicates for each PDC from one representative experiment. […] Middle: correlation analysis of MTC (blue) and GPM (red) activity in PDCs (n=25 MTC PDCs and n=21 GPM PDCs; Spearman's correlation, p=−0.51, P=0.0003). Bottom: enrichment of fCNV gain and loss of mitochondrial and glycolytic-related genes in MTC PDCs (n=25) and GPM PDCs (n=21). The number of genes amplified/deleted in each tumor is color coded (amplifications, red to white; deletions, blue to white). FIGS. 9F and G show viability curves of nine MTC PDCs and nine GPM PDCs each derived from an independent patient treated with either FX-11 (F) or DEAB (G). Data are mean±s.d. from n≥4 replicates for each PDC from one representative experiment. […] Data are mean±s.d. of one representative experiment assessed by n=30 replicates for each PDC; **P=0.0022. […] In all experiments, significance was evaluated by two-tailed t-test, unequal variance. […]
as §3

[4] = system: glycolytic/plurimetabolic PDOs; assay: Viability of glycolytic/plurimetabolic GBM PDOs, serial dilution of mitochondrial inhibitors
Description: (§4) The objective of the study is to test the activity of IM-156, a novel mitochondrial inhibitor currently in clinical testing, in vitro in 25 GBM-PDO organoids previously classified molecularly as mitochondrial (MTC, 13 organoids) or glycolytic/plurimetabolic (GPM, 12 organoids) plus 2 GBM-PDO harboring a FGFR3-TACC3 (F3T3) fusion.
(§5) Using IM-156 (0 μM -15 μM, 1/3 dilution, 7 points and 0-45 μM, 1/3 dilution, 10 points), […], and 2 FGFR3-TACC3 positive GBM PDOs were tested. Seventy-two hours later viability was assessed and the half-maximal inhibitory concentration was calculated. The activity (IC50) of IM-156 was compared with IACS-010759, Metformin, Tigecycline, and Menadione, 4 inhibitors of mitochondrial activity/respiration. […] FGFR3-TACC3 fusion expressing cells had been previously characterized as mitochondrial GBM.

[5] = system: mitochondrial PDOs; assay: Viability of mitochondrial GBM patient-derived organoids (PDOs), serial dilution of mitochondrial inhibitors
Description: as §4, §5

[6] = system: FGFR3-TACC3 PDOs; assay: Viability of FGFR3-TACC3 positive GBM PDOs, serial dilution of mitochondrial inhibitors
Description: as §4, §5

[7] = 15 μM as highest concentration, 72 h

## CN(C)c1cc(NC(=O)CNC(C)(C)C)c(O)c2c1C[C@H]1C[C@H]3[C@H](N(C)C)C(O)=C(C(N)=O)C(=O)[C@@]3(O)C(O)=C1C2=O [tigecycline]
[1]
  effect on viability of GPM PDCs: resistant
[2]
  effect on viability of MTC PDCs: reduced the viability

## CCN(CC)c1ccc(C=O)cc1 [DEAB]
[3]
  effect on viability of GBM PDCs regardless of metabolic class: no effect

## Cc1nc(-c2nc(-c3ccc(OC(F)(F)F)cc3)no2)nn1Cc1cccc(N2CCC(S(C)(=O)=O)CC2)c1 [IACS-010759]
[1]
  effect on viability of GPM PDCs: resistant
[2]
  effect on viability of MTC PDCs: reduced the viability

## CCCc1c(O)c(O)c(C(=O)O)c2cc(Cc3ccccc3)c(C)cc12 [FX-11]
[3]
  effect on viability of GBM PDCs regardless of metabolic class: no effect

## NC(=Nc1ccc(OC(F)(F)F)cc1)N=C(N)N1CCCC1 [IM-156]
[4]; [7]
  number of glycolytic/plurimetabolic PDOs in which the drug was effective: 2 out of 10
[4]; maximum concentration raised from 15 μM to 45 μM
  change in sensitivity of glycolytic/plurimetabolic GBM PDOs on increasing maximum concentration: significant increase in sensitivity
[5]; [7]
  number of mitochondrial PDOs in which the drug was effective: 12 out of 14
[5]; MTC versus GPM patient-derived tumor models
  effectiveness in MTC models as opposed to GPM subtype: significantly more effective
[5]; mitochondrial PDOs, 15 μM as highest concentration, viability at 72 h, read-out: Median IC50
  IC50: 6.38 µM
[6]; [7]
  number of FGFR3-TACC3 PDOs in which the drug was effective: 2 out of 2
[6]; 2 FGFR3-TACC3 positive GBM PDOs
  sensitivity of FGFR3-TACC3 fusion expressing cells: distinct sensitivity

## CN(C)C(=N)N=C(N)N [metformin]
[1]
  effect on viability of GPM PDCs: resistant
[2]
  effect on viability of MTC PDCs: reduced the viability

## CC1=CC(=O)c2ccccc2C1=O [menadione]
[1]
  effect on viability of GPM PDCs: resistant
[2]
  effect on viability of MTC PDCs: reduced the viability

From patent US20240052421A1, “METHOD OF IDENTIFYING AND TREATING MITOCHONDRIAL SUBTYPE TUMORS” (The Trustees of Columbia University in the City of New York, priority 2020, published 2024)
